Six compounds from paper PMC12667198, “Menthol‐like cooling compounds, including (R)‐(‐)‐carvone, inhibit the human bitter taste receptors for saccharin and acesulfame K” (FEBS Open Bio, 2025) can be followed below.

This assay addresses T1, TAS2R31 (Homo sapiens, UniProt P59538).
T1 construct: pEAK10; transient in HEK293T with chimeric G protein Galpha16gust44 (and mt-apoclytin II reporter)
T1 sequence (P59538 1-309): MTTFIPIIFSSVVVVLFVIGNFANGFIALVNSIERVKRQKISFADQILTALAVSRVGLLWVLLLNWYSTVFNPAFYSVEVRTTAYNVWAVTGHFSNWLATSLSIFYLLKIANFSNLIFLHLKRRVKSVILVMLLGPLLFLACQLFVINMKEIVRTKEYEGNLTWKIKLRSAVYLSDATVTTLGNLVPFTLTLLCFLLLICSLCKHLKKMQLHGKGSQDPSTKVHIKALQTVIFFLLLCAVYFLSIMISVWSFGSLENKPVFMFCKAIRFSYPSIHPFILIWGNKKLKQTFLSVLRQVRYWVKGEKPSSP
As to the kind of experiment: luminescence (mt-apoclytin II) Ca2+ assay, HEK293T. The class given is cell-based.
`CC(C)=C1CC[C@@H](C)CC1=O` [(+)‐pulegone] gave an IC50 of 290 ± 47 µM.

`C=C(C)[C@@H]1CC=C(C)C(=O)C1` [(R)‐(‐)‐carvone] registered an IC50 of 86 µM.

`CC(C)[C@H]1CC[C@H](C)C[C@@H]1O` [(+)‐menthol] displayed a half-inhibitory concentration (IC50) of 220 ± 15 µM.

As to `CC(C)[C@@H]1CC[C@@H](C)CC1=O` [menthone], the IC50 amounted to 570 ± 100 µM.

Take `CC1=CC(=O)[C@@H](C(C)C)CC1` [(R)‐(‐)‐piperitone]: the IC50 was 180 ± 19 µM.

For `CC(C)[C@@H]1CC[C@@H](C)C[C@H]1O` [(−)‐menthol], the IC50 came to 310 ± 58 µM. Compared with the last compound, the IC50 is about 1.7-fold higher.
